Assay results published in patent US4124598A, “Psoralens” (Hoffmann-La Roche Inc., priority 1976, dated 1978).
Counter-ions that a name gives are not always drawn. Like-named read-outs stand apart in the source and are kept apart here.

Columns and labels:
Calf thymus DNA [1] = assay: Equilibrium dialysis, non-covalent binding to DNA; conditions: for Kd: 0.01 M Tris, non-covalent binding; for (PS)/(S) for DNA in Saturated Solution: occupied/unoccupied binding sites
Method: (§1) In order to establish the dissociation constants from DNA and RNA, the non-covalent binding was ascertained. Non-covalent binding determines the presence of the psoralen within the nucleic acid helix. Its presence is determined in the absence of any radiant energy. As noted before, radiant energy is necessary to activate the psoralen covalent binding reaction with nucleic acid base pairs.
(§2) To determine the non-covalent binding, Calf thymus DNA (Sigma Type I) was dissolved in a 0.01 M Tris 0.001 M EDTA pH 8.5 buffer at a concentration of 25 ug/ml. A quantity of this DNA solution was placed in a dialysis bag (pretreated by boiling in NaHCO3), and the various tritiated derivatives were added inside the bag in half the cases and outside the bag in the other half. The molar ratio of psoralen molecules to base pairs was approximately 1:25. The bags were placed in vials filled with 18 ml of buffer and put on a shaker for 48-60 hours. After this period, radioactivity was determined both inside and outside the bags and the optical density of the DNA solution measured. From this information, and the specific activity of each derivative, the amount of drug non-covalently bound to the DNA was determined. Binding of the derivatives to Drosophila melanogaster ribosomal RNA was measured in exactly the same manner.
(§3) The units of the dissociation constants are moles/liter. Solubilities and molar extinction coefficients (ε) were obtained in pure water, the equilibrium constants (KD) in 0.01 M Tris.

[2] = molecular target: Drosophila melanogaster ribosomal RNA; assay: Equilibrium dialysis, non-covalent binding to RNA; conditions: for Kd: 0.01 M Tris, non-covalent binding; for (PS)/(S) for RNA in Saturated Solution: occupied/unoccupied binding sites
Method: as §1, §2, §3

Solubility in pure water = assay type: physicochemical; conditions: for solubility: pure water
Text: In order to study solubilities and dissociation constants, it is most convenient to prepare tritiated derivatives of the psoralen compounds. Thus, well-known radiation counting methods may be utilized to monitor the presence of the psoralens in solutions, or in nucleic acids.
as §3

[3] = Molar extinction coefficient in pure water; assay type: physicochemical
Text: as §3

DNA (calf thymus) [4] = assay: Low intensity photoaddition (covalent binding) to DNA; conditions: for A (footnote 1, shown as drawing 9) / B = percent of added psoralen covalently bound: 25 μg/ml DNA, psoralen:base pair 1:3; for moles of psoralen bound per mole of base pairs: 90 minutes irradiation
Method: (§4) The covalent binding of the psoralens to DNA and RNA was studied. To achieve covalent binding, it is necessary to supply radiant energy (light) to the binding sites. These studies were carried out as follows:
(§5) The DNA and RNA used in the covalent binding studies have been described previously. Samples of each nucleic acid were prepared at a concentration of 25 ug/ml in 0.01 m Tris 0.001 M EDTA buffer. The radioactive-psoralen derivatives were added in a ratio of one psoralen for every three base pairs. The irradiation was carried out in one of the two following devices.
The low intensity irradiations were performed with a modified slide projector which was fitted with a 400 watt General Electric mercury vapor lamp (H 400 A 33-1/T16). The image of the arc was focused on the same cell, jacketed by a cobaltous nitrate solution which was also used for the high intensity irradiations. The light intensity delivered to the sample in this device was 4 to 6 mw/cm^2. The high intensity irradiations were carried out in a device containing two of the sam 400 watt General Electric mercury vapor lamps which were mounted on either side of a double walled sample chamber at a distance between centers of 4.0 cm. The chamber was cooled to 10° C. by continuous circulation of a temperature regulated solution of cobaltous nitrate (40% w/w). The cobalt solution served as an ultraviolet filter which allowed a maximum transmittance of 365 nm light and a window from approximately 340-380 nm. The intensity of the light at the surface of the inner sample chamber was approximately 100 mw/cm^2. The nucleic acid-psoralen mixture was placed in the inner chamber where it was continuously stirred throughout the irradiation. […] Each aliquot was then extracted twice with chloroform/iso-amyl alcohol (24:1) to remove unreacted psoralen followed by exhaustive dialysis against 0.01 M Tris, 0.001 M EDTA buffer. The successful extraction of unbound psoralen by the chloroform-isoamyl alcohol required the aqueous phase to be at least 0.15 M in NaCl. Finally, the optical density of the nucleic-acid psoralen mixture was taken and its radioactivity determined, thus giving the amount of derivative covalently bound to the DNA or RNA. Taking samples, at spaced time intervals also permitted an assessment of the kinetics of the covalent binding.

DNA (calf thymus) [5] = assay: High intensity photoaddition (covalent binding) to DNA; conditions: 25 μg/ml DNA, psoralen:base pair 1:3
Method: as §4, §5
(§6) The low intensity irradiations were performed with a modified slide projector which was fitted with a 400 watt General Electric mercury vapor lamp (H 400 A 33-1/T16). The image of the arc was focused on the same cell, jacketed by a cobaltous nitrate solution which was also used for the high intensity irradiations. The light intensity delivered to the sample in this device was 4 to 6 mw/cm^2. The high intensity irradiations were carried out in a device containing two of the sam 400 watt General Electric mercury vapor lamps which were mounted on either side of a double walled sample chamber at a distance between centers of 4.0 cm. The chamber was cooled to 10° C. by continuous circulation of a temperature regulated solution of cobaltous nitrate (40% w/w). The cobalt solution served as an ultraviolet filter which allowed a maximum transmittance of 365 nm light and a window from approximately 340-380 nm. The intensity of the light at the surface of the inner sample chamber was approximately 100 mw/cm^2. The nucleic acid-psoralen mixture was placed in the inner chamber where it was continuously stirred throughout the irradiation. Aliquots of each solution (derivative plus nucleic acid) were taken at 20, 40 and 60 minutes. Each aliquot was then extracted twice with chloroform/iso-amyl alcohol (24:1) to remove unreacted psoralen followed by exhaustive dialysis against 0.01 M Tris, 0.001 M EDTA buffer. The successful extraction of unbound psoralen by the chloroform-isoamyl alcohol required the aqueous phase to be at least 0.15 M in NaCl. Finally, the optical density of the nucleic-acid psoralen mixture was taken and its radioactivity determined, thus giving the amount of derivative covalently bound to the DNA or RNA. Taking samples, at spaced time intervals also permitted an assessment of the kinetics of the covalent binding.

[6] = test system: RNA (Drosophila melanogaster ribosomal RNA); assay: High intensity photoaddition (covalent binding) to RNA; conditions: 25 μg/ml RNA, psoralen:base pair 1:3
Method: as §4, §5, §6

[7] = test system: vesicular stomatitis virus; assay type: cell-based, Vesicular stomatitis virus Indiana strain; conditions: for effectiveness in inactivation of vesicular stomatitis virus vs 4,5',8-trimethyl psoralen: high dose rates, e.g., 30 μg/ml
DNA = assay: Reactivity with DNA (general statement); assay type: binding, calf
Method: as §4, §5
as §6, with “Each aliquot was then extracted twice with chloroform/iso-amyl alcohol (24:1) to remove unreacted psoralen followed by exhaustive dialysis against 0.01 M Tris, 0.001 M EDTA buffer. The successful extraction of unbound psoralen by the chloroform-isoamyl alcohol required the aqueous phase to be at least 0.15 M in NaCl.” left out, “Taking samples, at spaced time intervals also permitted an assessment of the kinetics of the covalent binding.” left out

Calf thymus DNA [8] = conditions: calculated from literature results, cited from earlier work
[9] = molecular target: Drosophila melanogaster ribosomal RNA; conditions: calculated from literature results, cited from earlier work
[10] = calculated from literature results, cited from earlier work
[11] = after 90 minutes of irradiation

Cc1oc2c(C)c3oc(=O)cc(C)c3cc2c1CN [4'-aminomethyl-4,5',8-trimethyl psoralen hydrochloride]
Kd (Calf thymus DNA [1]): 6.6 µM | times more effective at reaching state of site saturation (Calf thymus DNA [1]; calculated, DNA): 10^4 times | (PS)/(S) for DNA in Saturated Solution (Calf thymus DNA [1]; saturated solution): 5000 | times more strongly binding than 4'-hydroxymethyl trioxsalen (Calf thymus DNA [1]; vs 4'-hydroxymethyl trioxsalen): about 100 times | times more strongly binding to DNA than trioxsalen (Calf thymus DNA [1]; vs trioxsalen): about 8 times | Kd [2]: 20 µM | (PS)/(S) for RNA in Saturated Solution [2]: 1700 | solubility (Solubility in pure water): 10 mg/mL | solubility (Solubility in pure water; molar): 34000 µM | times more soluble than 4'-hydroxymethyl trioxsalen (Solubility in pure water; vs 4'-hydroxymethyl trioxsalen): 150 times | Extinction coefficient ε, 250 nm [3]: 25000 L/mol/cm | rate of reaction with DNA / initial rate of photochemical binding (DNA (calf thymus) [4]): reacts with DNA much faster than trioxsalen | A (footnote 1, shown as drawing 9) (DNA (calf thymus) [4]; 5 min irradiation): 15.0 | B = percent of added psoralen covalently bound (DNA (calf thymus) [4]; 5 min irradiation): 19.3% | A (footnote 1, shown as drawing 9) (DNA (calf thymus) [4]; 10 min irradiation): 10.5 | B = percent of added psoralen covalently bound (DNA (calf thymus) [4]; 10 min irradiation): 27.4% | A (footnote 1, shown as drawing 9) (DNA (calf thymus) [4]; 30 min irradiation): 6.9 | B = percent of added psoralen covalently bound (DNA (calf thymus) [4]; 30 min irradiation): 41.8% | A (footnote 1, shown as drawing 9) (DNA (calf thymus) [4]; 60 min irradiation): 5.9 | B = percent of added psoralen covalently bound (DNA (calf thymus) [4]; 60 min irradiation): 48.7% | A (footnote 1, shown as drawing 9) (DNA (calf thymus) [4]; 90 min irradiation): 5.5 | B = percent of added psoralen covalently bound (DNA (calf thymus) [4]; 90 min irradiation): 52.4% | moles of psoralen bound per mole of base pairs (DNA (calf thymus) [4]): 0.18 moles per mole of base pairs | molecules in the solution covalently bound to DNA (DNA (calf thymus) [4]; [11]): over half | A (footnote 1, shown as drawing 10) (DNA (calf thymus) [5]; 20 min irradiation): 4.7 | B = percent of added psoralen covalently bound (DNA (calf thymus) [5]; 20 min irradiation): 63.8% | A (footnote 1, shown as drawing 10) (DNA (calf thymus) [5]; 40 min irradiation): 4.8 | B = percent of added psoralen covalently bound (DNA (calf thymus) [5]; 40 min irradiation): 62.5% | A (footnote 1, shown as drawing 10) (DNA (calf thymus) [5]; 60 min irradiation): 4.8 | B = percent of added psoralen covalently bound (DNA (calf thymus) [5]; 60 min irradiation): 62.5% | A (footnote 1, shown as drawing 11) ([6]; 20 min irradiation): 5.1 | B = percent of added psoralen covalently bound ([6]; 20 min irradiation): 59.4% | A (footnote 1, shown as drawing 11) ([6]; 40 min irradiation): 5.3 | B = percent of added psoralen covalently bound ([6]; 40 min irradiation): 57.2% | A (footnote 1, shown as drawing 11) ([6]; 60 min irradiation): 5.3 | B = percent of added psoralen covalently bound ([6]; 60 min irradiation): 57.3% | inactivation of vesicular stomatitis virus, comparison in words ([7]; FIG. 2, 1-3 μg/ml, long wavelength UV): undisputed superiority | effectiveness in inactivation of vesicular stomatitis virus vs 4,5',8-trimethyl psoralen [7]: nearly one thousand times more effective | reactivity with DNA (DNA): excellent reactivity with DNA

Cc1oc2c(C)c3oc(=O)cc(C)c3cc2c1CO [4'-hydroxymethyl-4,5',8-trimethyl psoralen]
Kd (Calf thymus DNA [1]): 290 µM | DNA site saturation, one psoralen per base pairs (Calf thymus DNA [1]; saturated solution, expected from KD and solubility): one psoralen per three base pairs | (PS)/(S) for DNA in Saturated Solution (Calf thymus DNA [1]; saturated solution): 0.55 | (PS)/(S) for DNA in Saturated Solution (Calf thymus DNA [1]; saturated solution, listed as 4'-hydroxmethyl trioxsalen): 0.5 | times more strongly binding to DNA than methoxsalen (Calf thymus DNA [1]; vs methoxsalen): 10 times | Kd [2]: 1000 µM | (PS)/(S) for RNA in Saturated Solution [2]: 0.16 | solubility (Solubility in pure water): 0.041 mg/mL | solubility (Solubility in pure water; molar): 160 µM | Extinction coefficient ε, 250 nm [3]: 25000 L/mol/cm | A (footnote 1, shown as drawing 9) (DNA (calf thymus) [4]; 5 min irradiation): 89.0 | B = percent of added psoralen covalently bound (DNA (calf thymus) [4]; 5 min irradiation): 3.0% | A (footnote 1, shown as drawing 9) (DNA (calf thymus) [4]; 10 min irradiation): 59.6 | B = percent of added psoralen covalently bound (DNA (calf thymus) [4]; 10 min irradiation): 4.6% | A (footnote 1, shown as drawing 9) (DNA (calf thymus) [4]; 30 min irradiation): 26.0 | B = percent of added psoralen covalently bound (DNA (calf thymus) [4]; 30 min irradiation): 10.3% | A (footnote 1, shown as drawing 9) (DNA (calf thymus) [4]; 60 min irradiation): 19.5 | B = percent of added psoralen covalently bound (DNA (calf thymus) [4]; 60 min irradiation): 13.8% | A (footnote 1, shown as drawing 9) (DNA (calf thymus) [4]; 90 min irradiation): 17.2 | B = percent of added psoralen covalently bound (DNA (calf thymus) [4]; 90 min irradiation): 15.7% | moles of psoralen bound per mole of base pairs (DNA (calf thymus) [4]): 0.06 moles per mole of base pairs | remains free in the solution (DNA (calf thymus) [4]; [11]): more than 80% | A (footnote 1, shown as drawing 10) (DNA (calf thymus) [5]; 20 min irradiation): 9.1 | B = percent of added psoralen covalently bound (DNA (calf thymus) [5]; 20 min irradiation): 33.0% | A (footnote 1, shown as drawing 10) (DNA (calf thymus) [5]; 40 min irradiation): 9.2 | B = percent of added psoralen covalently bound (DNA (calf thymus) [5]; 40 min irradiation): 32.6% | A (footnote 1, shown as drawing 10) (DNA (calf thymus) [5]; 60 min irradiation): 9.1 | B = percent of added psoralen covalently bound (DNA (calf thymus) [5]; 60 min irradiation): 33.0% | A (footnote 1, shown as drawing 11) ([6]; 20 min irradiation): 26.3 | B = percent of added psoralen covalently bound ([6]; 20 min irradiation): 11.5% | A (footnote 1, shown as drawing 11) ([6]; 40 min irradiation): 24.8 | B = percent of added psoralen covalently bound ([6]; 40 min irradiation): 12.1% | A (footnote 1, shown as drawing 11) ([6]; 60 min irradiation): 23.5 | B = percent of added psoralen covalently bound ([6]; 60 min irradiation): 13.0% | effectiveness in inactivation of vesicular stomatitis virus vs 4,5',8-trimethyl psoralen [7]: nearly one thousand times more effective | reactivity with DNA (DNA): excellent reactivity with DNA

COc1c2occc2cc2ccc(=O)oc12 [8-methoxypsoralen, 8-methoxy psoralen]
one psoralen per n base pairs at equilibrium (best achievable) (Calf thymus DNA [1]; saturated solution): ~20 base pairs | Extinction coefficient ε, 250 nm [3]: 19000 L/mol/cm | Kd (Calf thymus DNA [8]): 2500 µM | (PS)/(S) for DNA in Saturated Solution (Calf thymus DNA [8]; saturated solution): 0.068 | Kd [9]: 17000 µM | (PS)/(S) for RNA in Saturated Solution ([9]; saturated solution): 0.010 | solubility [10]: 0.036 mg/mL | solubility ([10]; molar): 170 µM
